Data from patent publication EP0967201A1, “Pharmaceutical agents containing sulfonamids as matrix metalloproteinase inhibitors” (Roche Diagnostics GmbH, priority 1998, dated 1999).

What was measured:
[1] = biological target: T1, MMP-8 (Homo sapiens, UniProt P22894); test: MMP inhibition enzyme assay (initial reaction rate, standard substrate DNP-Pro-Leu-Gly-Leu-Trp-Ala-D-Arg-NH2); assay type: biochemical; conditions: 8 nM catalytic domain (Met80-Gly242) of human neutrophil collagenase; 10 microM substrate; pH 7.6; read-out: MMP-8 Inhib. [%] IC50
T1 construct: catalytic domain (Met80-Gly242) of human neutrophil collagenase; made in house
T1 sequence (P22894 100-262 limits assumed): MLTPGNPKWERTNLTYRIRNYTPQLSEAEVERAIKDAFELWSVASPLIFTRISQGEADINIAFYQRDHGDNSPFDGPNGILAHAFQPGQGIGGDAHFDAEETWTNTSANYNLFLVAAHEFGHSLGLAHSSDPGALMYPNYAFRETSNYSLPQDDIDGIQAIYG
Protocol: (§1) In order to determine the inhibition of MMPs, for example MMP-8, the catalytic domain (isolation and purification see for example Schnierer, S., Kleine, T., Gote, T., Hillemann, A., Knäuper, V., Tschesche, H.,Biochem. Biophys. Res. Commun. (1993) 191, 319-326) is incubated with inhibitors having various concentrations. Subsequently, the initial reaction rate in the conversion of a standard substrate is measured in a manner analogous to Grams F. et al., FEBS 335 (1993) 76-80). Alternatively the percent inhibition will be determined at a distant inhibitor concentration.
(§2) The assays for other MMPs are performed in a analogous manner. • Assay buffer: 50 mM Tris/HCI pH 7.6 (Tris= Tris-(hydroxymethyl)-aminomethan) 100 mM NaCl/10 mM CaCl2-/5% MeOH (if necessary) • Enzyme: 8 nM catalytic domain (Met80-Gly242) of human neutrophil collagenase • Substrate: 10 microM DNP-Pro-Leu-Gly-Leu-Trp-Ala-D-Arg-NH2 • Total assay volume: 1 ml

[2] = biological target: MMP-9 (Homo sapiens, UniProt P14780); test: MMP inhibition enzyme assay, performed in an analogous manner to MMP-8; assay type: biochemical; conditions: compound concentration 0.21 µM (100 ng/ml); read-out: MMP-9 Inhib. [%]
Sequence of MMP-9 (P14780 94-707, species assumed): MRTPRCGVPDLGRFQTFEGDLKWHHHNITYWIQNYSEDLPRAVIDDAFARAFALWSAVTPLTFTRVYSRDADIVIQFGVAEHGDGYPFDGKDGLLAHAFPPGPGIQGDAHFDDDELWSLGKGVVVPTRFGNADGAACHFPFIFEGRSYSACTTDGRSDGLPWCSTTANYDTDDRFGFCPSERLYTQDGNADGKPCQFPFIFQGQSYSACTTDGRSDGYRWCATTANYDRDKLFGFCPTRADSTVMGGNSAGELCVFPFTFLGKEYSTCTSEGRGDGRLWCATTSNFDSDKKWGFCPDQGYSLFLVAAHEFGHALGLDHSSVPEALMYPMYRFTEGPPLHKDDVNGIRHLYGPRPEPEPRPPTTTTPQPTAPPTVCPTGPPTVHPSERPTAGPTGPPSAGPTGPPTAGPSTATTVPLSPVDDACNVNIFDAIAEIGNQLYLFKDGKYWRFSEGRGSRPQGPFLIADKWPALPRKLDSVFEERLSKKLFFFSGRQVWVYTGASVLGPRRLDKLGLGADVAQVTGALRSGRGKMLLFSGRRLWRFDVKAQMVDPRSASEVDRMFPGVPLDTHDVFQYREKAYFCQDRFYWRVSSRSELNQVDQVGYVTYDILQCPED
Protocol: as §1, §2

| SMILES | IC50 [1] | inhibition at 0.21 µM [2] |
| --- | --- | --- |
| O=C(O)[C@H](CSCc1ccccc1)NS(=O)(=O)c1ccc(-c2ccc(Cl)cc2)cc1 [Example 1, N-(p-Chloro-biphenylsulfonyl)-S-benzyl-cysteine] | 0.0216 µM | – |
| O=C(C[C@H](NS(=O)(=O)c1ccc(-c2ccc(Cl)cc2)cc1)C(=O)O)OCc1ccccc1 [Example 2, L-N-(p-Chlorobiphenylsulfonyl)-aspartic acid-β-benzylester] | 0.0487 µM | 38% |
